According to patent US12404252B2, “Salt of 2-amino-2-(2-(1-decyl-1H-1,2,3-triazol-4-yl)ethyl)propane-1,3-diol, and pharmaceutical composition containing same” (NEXTGEN BIOSCIENCE CO., LTD, priority 2021, dated 2025):
Like-named read-outs stand apart in the source and are kept apart here.

Legend:
[1] = test system: unilateral ureteral obstruction (UUO) model; test: Unilateral ureteral obstruction (UUO) renal fibrosis model; format: in vivo; conditions: UUO mice, 30 mg/kg/day orally, 2 weeks
Procedure: The antifibrotic effect of Compound 1a in renal disease was evaluated using the unilateral ureteral obstruction (UUO) model, which is a renal fibrotic disease model. Kidney fibrosis was induced by unilateral ureteral obstruction of mice, and then Compound 1a at 10, 30, and 90 mg/kg/day and the positive control substance telmisartan at 30 mg/kg/day were orally administered to the mice once a day for 2 weeks.

[2] = test system: adenine-induced chronic kidney disease model; test: Adenine-induced chronic kidney disease model; format: in vivo; conditions: adenine-induced CKD mice, 10 mg/kg/day orally, 3 weeks
Procedure: The antifibrotic effect of Compound 1a was evaluated using an adenine-induced chronic kidney disease model. 0.5% adenine (in 0.5% CMC) was orally administered to mice for 4 weeks to induce chronic kidney disease, and Compound 1a at 10, 30, and 90 mg/kg/day and the positive control substance telmisartan 10 mg/kg/day were administered orally to the mice for 3 weeks, followed by measurement of serum creatinine, serum BUN, and kidney hydroxyproline, and histopathology. In addition, the tubular-interstitial index value was determined based on the above measurement results.

[3] = test system: dextran sulfate sodium (DSS)-induced colitis model; test: DSS-induced colitis mouse model, disease activity index; format: in vivo; conditions: DSS mice
Procedure: The effectiveness of Compound 1a against inflammatory bowel disease was evaluated using the dextran sulfate sodium (DSS)-induced colitis model. In the mouse model, inflammatory bowel disease was induced by administering DSS to mice at a concentration of 2.5% via drinking water. Mice were divided into a test group administered Compound 1a, a positive control group administered ozanimod or MTX (methotrexate), a vehicle group, and a normal control group, and each group had n=10. Compound 1, a compound of the present invention, was orally administered at doses of 5 and 10 mg/kg once a day for 7 days to the inflammatory bowel disease-induced model, and ozanimod as a positive control was administered orally at a dose of 5 mg/kg once a day, and MTX (methotrexate) as a positive control was administered intraperitoneally at a dose of 3 mg/kg three times a week.
DAI represents the total score of weight loss relative to initial weight, stool consistency, and degree of intestinal bleeding of the mouse. The criteria for calculation of DAI are shown in Table 10 below, and DAI was evaluated on days 0, 1, 2, 3, 4, 5, 6, 7, and 8.

[4] = Hygroscopicity test by DVS; format: physicochemical; conditions: for DVS remark (adsorption at 90% RH): water adsorption at 90% RH
Source text: Dynamic vapor sorption (DVS) is a method that has been used for a long time to investigate the interactions between active pharmaceutical ingredients (APIs), and pharmaceutical preparations and water. Here, to analyze the water absorption rate of a sample at a specific temperature, measurements are made by exposing the sample to the desired relative humidity using a DVS water sorption analyzer (hygroscopicity analyzer) until the change in weight of the sample stabilizes.

[5] = Solubility in aqueous media (HPLC); format: physicochemical; conditions: same conditions as Compound 1a, some samples
Procedure: The solubility of Compound 1a prepared in Example 1 was evaluated in several different media, including pH 1.2 hydrochloric acid buffer, pH 3.0 citrate buffer, pH 4.7 acetate buffer, pH 6.8 phosphate buffer, simulated gastric fluid, fasted-state simulated intestinal fluid, fed-state simulated intestinal fluid, and water. About 2.17 mg of sample (based on the free base of Compound 1) for each medium was taken into a 2-mL transparent glass vial and […] of medium was added (constituents of the salt were considered Compound 1: counterion=1:0.5; target concentration: 2 mg/mL). The mixture was stirred using a magnetic stirrer at 250 RPM for 24 hours at 25° C. Next, the pH and appearance of the mixture were recorded and the mixture was filtered through a MultiScreen® HTS-HV 96-well plate (manufactured by Merck; 0.45-μm hydrophilic, low-protein-binding Durapore® membrane). Solubility was determined using HPLC, and a calibration curve was created by injecting a known concentration of Compound 1a. The filtered sample was injected (diluted appropriately as necessary) and the concentration of Compound 1a (mg/mL) in the filtrate was calculated from the calibration curve (taking salt coefficient into account). The analysis results are as follows.

[6] = Standard stock solution stability, 40° C./75±5% RH; format: physicochemical; conditions: 40° C./75% RH
Procedure: The stability of the crystalline compound was examined at 40° C./75±5% RH. Physical stability was examined through comparative XRPD analysis before and after the test, and chemical stability was examined by HPLC method. The experimental conditions used in the stability test for Compound 1a and the test results are as follows.
40° C./75±5% RH: Conditions in which the vial was open and upright.
(§1) A required amount (˜1 mg) of solid material was dissolved in 1 mL of a diluent (1:1 methanol/water), and the prepared solution was analyzed by HPLC.

[7] = Standard stock solution stability, 60° C./75±5% RH; format: physicochemical; conditions: 2 weeks under 60° C./75±5% RH
Procedure: The stability of the crystalline compound was under 60° C./75±5% RH conditions, and the purity thereof was examined by HPLC method. The experimental conditions used in the stability test for Compound 1a and the test results are as follows.
60° C./75±5% RH: Conditions in which the vial was open and upright.
as §1

[8] = pH stability and salinity stability, 40±2° C.; format: physicochemical
Procedure: pH and salinity stability tests for the hemifumirate salt of Compound 1 were performed at an initial target concentration of 2 mg/mL. The pH and salinity stability conditions used to evaluate the hemifumirate salt of Compound 1 and the evaluation results are as follows.
• 40±2° C.: Conditions in which the vial was capped and upright • Storage container for stability: 2-mL screw neck clear glass vial (manufactured by La-Pha-Pack) • Target concentration: ˜ 2 mg/mL (adding the sample to 1 mL of medium, followed by vortexing for 30 seconds) • 500 μL of the test mixture was dissolved in 500 μL of a diluent (1:1 methanol/water), and the prepared solution was analyzed by HPLC without filtration.

[9] = Photostability test; format: physicochemical
Procedure: For a photostability test, 10 mg of Compound 1a was exposed to 1.2 million lux hours of ultraviolet and visible light at room temperature. For an oxidation stability test, 0.2 mL of 30% H2O2 and 1 mg of Compound 1a were placed in a 2-mL vial and stored at 25° C. for up to 24 hours. The photostability and oxidation stability conditions used to evaluate the fumarate salt of Compound 1 and the evaluation results are as follows.

[10] = Oxidation stability test (30% H2O2); format: physicochemical
[11] = Corrosion of a sample stored together with the substance at 60° C.; format: physicochemical; conditions: stored together with the sample for 2 weeks at 60° C.
Procedure: FIG. 12 depicts photograph showing the results of checking the degree of corrosion of a sample after storing each of the free base of Compound 1, Compound 1a, and a hydrochloride salt of Compound 1 together with the sample under 60° C. conditions for 2 weeks.

[12] = pH stability and salinity stability, 40±2° C.; format: physicochemical; remark: listed apart in the source
[13] = pKa of the free base; format: physicochemical; conditions: natural conditions
Procedure: The method for preparing the salt of the present invention and the process of selecting the salt thereby are as follows. […] Specifically, acids that were appropriate for matching the pKa of the free base of Compound 1 described above were calculated by computer, and these acids were mainly identified as acids having a pKa of about 2 to 5.

[14] = target: hERG potassium ion channel (Homo sapiens, UniProt Q12809)
Chain of hERG potassium ion channel (Q12809 whole entry): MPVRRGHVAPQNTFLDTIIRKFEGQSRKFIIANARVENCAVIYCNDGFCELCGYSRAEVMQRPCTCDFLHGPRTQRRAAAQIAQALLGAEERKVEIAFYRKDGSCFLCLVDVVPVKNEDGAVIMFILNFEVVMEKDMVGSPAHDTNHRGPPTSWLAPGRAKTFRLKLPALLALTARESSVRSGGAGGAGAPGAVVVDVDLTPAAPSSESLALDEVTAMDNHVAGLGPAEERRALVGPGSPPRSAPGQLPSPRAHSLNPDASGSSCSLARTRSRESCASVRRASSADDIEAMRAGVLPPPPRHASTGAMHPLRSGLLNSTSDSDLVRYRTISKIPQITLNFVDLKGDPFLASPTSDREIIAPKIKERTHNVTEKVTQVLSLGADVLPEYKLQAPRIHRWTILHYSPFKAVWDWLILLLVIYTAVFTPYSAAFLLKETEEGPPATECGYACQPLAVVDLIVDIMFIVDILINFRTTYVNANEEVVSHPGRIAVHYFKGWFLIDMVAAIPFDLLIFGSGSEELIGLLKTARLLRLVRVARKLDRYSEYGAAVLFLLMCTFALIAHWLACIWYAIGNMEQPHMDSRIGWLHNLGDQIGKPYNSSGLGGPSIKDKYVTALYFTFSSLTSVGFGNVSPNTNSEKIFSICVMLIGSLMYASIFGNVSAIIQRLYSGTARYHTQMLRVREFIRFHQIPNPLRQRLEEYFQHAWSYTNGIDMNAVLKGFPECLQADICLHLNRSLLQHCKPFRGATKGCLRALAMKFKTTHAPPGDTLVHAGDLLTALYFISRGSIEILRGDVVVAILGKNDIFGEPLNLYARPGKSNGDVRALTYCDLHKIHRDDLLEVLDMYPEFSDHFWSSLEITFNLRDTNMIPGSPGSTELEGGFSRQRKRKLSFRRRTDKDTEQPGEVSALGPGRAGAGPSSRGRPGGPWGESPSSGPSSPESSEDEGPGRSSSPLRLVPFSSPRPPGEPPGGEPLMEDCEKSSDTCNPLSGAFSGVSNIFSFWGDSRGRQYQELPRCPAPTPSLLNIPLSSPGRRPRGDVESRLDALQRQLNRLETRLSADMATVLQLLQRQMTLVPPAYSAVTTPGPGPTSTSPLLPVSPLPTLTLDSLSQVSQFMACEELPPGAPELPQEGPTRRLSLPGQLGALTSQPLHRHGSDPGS

CCCc1nc2c(C)cc(-c3nc4ccccc4n3C)cc2n1Cc1ccc(-c2ccccc2C(=O)O)cc1 [telmisartan, reference compound]
Kidney hydroxyproline [1]: statistically significantly reduced
kidney fibrosis (tubular-interstitial index) [2]: statistically significantly decreased

CN(Cc1cnc2nc(N)nc(N)c2n1)c1ccc(C(=O)N[C@@H](CCC(=O)O)C(=O)O)cc1 [MTX, methotrexate, reference compound]
disease activity index (DAI) compared to negative control group (vehicle) ([3]; 3 mg/kg intraperitoneally three times a week): statistically significantly decreased

CCCCCCCCCCn1cc(CCC(N)(CO)CO)nn1.O=C(O)CCC(=O)O [compound 2]
DVS remark (adsorption at 90% RH) [4]: 19.42%

CCCCCCCCCCn1cc(CCC(N)(CO)CO)nn1.Cl [Comparative Example 1, reference compound]
behaviour in natural conditions ([4]; natural conditions): exhibited deliquescence
DVS remark (adsorption at 90% RH) [4]: 49.5%
DVS remark (adsorption at 90% RH) ([4]; listed as hydrochloride salt of Compound 1): 49.5%
appearance in aqueous media [5]: undissolved suspension form in some samples
Purity % ([6]; 1-week): 99.00%
XRPD (physical stability) ([6]; 1-week, listed as Hydrochloride salt of Compound 1): Turned into liquid
XRPD (physical stability) ([6]; 1-week, listed as hydrochloride salt of Compound 1): turned into a liquid phase
Purity % ([6]; 2-week): 99.22%
Purity % ([6]; Initial): 99.34%
XRPD (physical stability) ([6]; Initial): Crystalline
change in appearance [7]: turned into a liquid phase
Purity % ([8]; Saline (0.9% NaCl)/40° C., Initial): 99.43%
Purity % ([8]; pH 6.8 phosphate buffer/40° C., 1-week): 98.04%
Purity % ([8]; pH 6.8 phosphate buffer/40° C., Initial): 98.93%
Purity % ([9]; Photostability 1.2 million lux hours exposed): 98.75%
Purity % ([9]; Photostability 1.2 million lux hours unexposed): 99.35%
Purity % ([10]; 30% H2O2 60° C. for 20 hours): 91.23%
degree of corrosion of the sample [11]: corrosion occurred
Purity % ([12]; Saline (0.9% NaCl)/40° C., 1-week, listed as Hydrochloride salt of Compound 1): 98.00%
Purity % ([12]; Saline (0.9% NaCl)/40° C., 1-week, listed as hydrochloride salt of Compound 1): ≤ 98%
Purity % ([12]; pH 6.8 phosphate buffer/40° C., 2-week, listed as Hydrochloride salt of Compound 1): 97.87%
Purity % ([12]; pH 6.8 phosphate buffer/40° C., 2-week, listed as hydrochloride salt of Compound 1): less than 98%

CCCCCCCCCCn1cc(CCC(N)(CO)CO)nn1.O=C(O)CC(O)(CC(=O)O)C(=O)O [compound 6]
DVS remark (adsorption at 90% RH) [4]: 22.80%

CC(C)Oc1ccc(-c2nc(-c3cccc4c3CC[C@@H]4NCCO)no2)cc1C#N [ozanimod, reference compound]
disease activity index (DAI) compared to negative control group (vehicle) ([3]; 5 mg/kg orally once a day): statistically significantly decreased

CCCCCCCCCCn1cc(CCC(N)(CO)CO)nn1 [Compound 1, 2-Amino-2-(2-(1-decyl-1H-1,2,3-triazol-4-yl)ethyl) propane-1,3-diol]
decomposition rate ([10]; oxidative stress conditions, after 20 hours): ≥ 8%
pKa [13]: 8.12
compensated suppression rate (%) of hERG channel currents ([14]; 1 μM): 9.94±1.96%
compensated suppression rate (%) of hERG channel currents ([14]; 3 μM): 13.98±4.48%
compensated suppression rate (%) of hERG channel currents ([14]; 10 μM): 35.03±12.09%
compensated suppression rate (%) of hERG channel currents ([14]; 30 μM): 82.62±7.31%

CCCCCCCCCCn1cc(CCC(N)(CO)CO)nn1 [Compound 1b, 2-amino-2-(2-(1-decyl-1H-1,2,3-triazol-4-yl)ethyl) propane-1,3-diol]
hygroscopicity (DVS evaluation, in words) ([4]; 90% RH, listed as Example 2): low hygroscopicity
DVS remark (adsorption at 90% RH) ([4]; listed as Example 2): 4.563%

CC(=O)O.CCCCCCCCCCn1cc(CCC(N)(CO)CO)nn1 [compound 3]
DVS remark (adsorption at 90% RH) [4]: 34.33%

CCCCCCCCCCn1cc(CCC(N)(CO)CO)nn1.O=C(O)CCCCC(=O)O [compound 5]
DVS remark (adsorption at 90% RH) [4]: 22.46%

CC(=O)O.CCCCCCCCCCn1cc(CCC(N)(CO)CO)nn1 [compound 4]
DVS remark (adsorption at 90% RH) [4]: 33.67%
